Here are results for one molecule from ChEMBL document CHEMBL4414546, “Identification of Narciclasine as an in Vitro Anti-Inflammatory Component of Cyrtanthus contractus by Correlation-Based Metabolomics” (2019).

Active and inactive are the calls of the source. The rule behind the calls is not given here.

Assay [1] concerns HUVEC. Briefly: Antiinflammatory activity in HUVEC assessed as reduction in TNF-alpha-induced ICAM1 cell surface expression at 7.2 nM preincubated for 30 mins followed by TNF-alpha stimulation and measured after 24 hrs by flow cytometry. It is filed as functional, cell-based. The conditions noted are these: Homo sapiens.
Assay [2] deals with HUVEC. Briefly: Antiinflammatory activity in HUVEC assessed as reduction in TNF-alpha-induced E-selectin expression at 7.2 nM preincubated for 30 mins followed by TNF-alpha stimulation and measured after 30 mins by immunoblotting analysis. In kind it is functional, cell-based. The conditions noted are these: Homo sapiens.
Assay [3] deals with HUVEC. In words: Effect on TNF-alpha-induced NFkappaB nuclear translocation in HUVEC at 7.2 nM preincubated for 30 mins followed by TNF-alpha stimulation and measured after 30 mins by fluorescence microscopic analysis. In kind it is cell-based. The settings on record: Homo sapiens.
Assay [4] relates to HUVEC. In words: Antiinflammatory activity in TNF-alpha-induced HUVEC assessed as fold change in IkappaBalpha expression at 7.2 nM preincubated for 30 mins followed by addition and measured after 30 mins by immunoblotting analysis (reference value: 0.50). In kind it is functional, Homo sapiens.
Assay [5] relates to HUVEC. Briefly: Antiinflammatory activity in TNF-alpha-induced HUVEC assessed as fold change in COX2 expression at 7.2 nM preincubated for 30 mins followed by addition and measured after 30 mins by immunoblotting analysis (reference value: 0.50). In kind it is functional, Homo sapiens.
The test system of assay [6] is HUVEC. Briefly: Antiinflammatory activity in HUVEC assessed as reduction in TNF-alpha-induced E-selectin cell surface expression at 7.2 nM preincubated for 30 mins followed by TNF-alpha addition and measured after 4 hrs by ELISA. It is filed as functional, cell-based. The settings on record: Homo sapiens.

As to `O=C1N[C@@H]2C(=C[C@H](O)[C@@H](O)[C@H]2O)c2cc3c(c(O)c21)OCO3` [NARCICLASINE], the inhibition result in assay [1], in assay [2] and in assay [6] was “Active” in each case. Further, in assay [3], the outcome was inactive. Moreover, the “fold change (FC)” value in assay [4] was 0.31; in assay [5], 0.8.
